In ChEMBL document CHEMBL1147797, “Construction of human ghrelin receptor (hGHS-R1a) model using a fragmental prediction approach and validation through docking analysis” (J Med Chem, 2006) one finds EC50 data, which are given here for 33 molecules.

As usually defined, the EC50 is the concentration needed to bring the measured effect to its halfway point.

Growth hormone secretagogue receptor type 1, sequence (Q92847 whole entry): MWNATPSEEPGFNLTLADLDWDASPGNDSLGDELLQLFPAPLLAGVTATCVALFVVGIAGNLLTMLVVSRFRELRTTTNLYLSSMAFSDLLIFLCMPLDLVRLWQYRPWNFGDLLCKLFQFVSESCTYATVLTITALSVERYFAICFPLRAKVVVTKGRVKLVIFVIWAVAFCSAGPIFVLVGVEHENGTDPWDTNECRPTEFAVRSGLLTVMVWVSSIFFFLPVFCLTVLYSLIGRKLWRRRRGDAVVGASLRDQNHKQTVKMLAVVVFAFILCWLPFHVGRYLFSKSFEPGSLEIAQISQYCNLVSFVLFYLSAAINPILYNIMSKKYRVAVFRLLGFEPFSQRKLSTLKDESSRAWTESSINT

This test concerns the target Growth hormone secretagogue receptor type 1 (Homo sapiens, UniProt Q92847). The experiment in a line: Activity at human GHS-R1a receptor in rat pituitary cells assessed as GH release. In kind it is cell-based, Pituitary gland cell.
`CCNC(=O)[C@@]1(Cc2ccccc2)CCCN(C(=O)[C@@H](Cc2c[nH]c3ccccc23)NC(=O)C(C)(C)N)C1`: the EC50 amounted to 0.8 nM.

Take `CN(CCc1cccs1)C(=O)[C@@H](Cc1ccc(-c2ccccc2)cc1)N(C)C(=O)/C=C/CC(C)(C)N`: the half-maximal effective concentration (EC50) was determined as 5 nM.

As to `CNC(=O)NCc1ccccc1-c1ccc(CN2C(=O)[C@H](NC(=O)C(C)(C)N)CCc3ccccc32)cc1`, the EC50 amounted to 1 nM.

Turning to `CCNC(=O)NCc1ccccc1-c1ccc(CN2C(=O)[C@H](NC(=O)C(C)(C)N)CCc3ccccc32)cc1`, the EC50 worked out at 6 nM.

In the case of `CC(C)(N)C(=O)N[C@H](COCc1ccccc1)C(=O)N1CCC2(CC1)COc1ccccc12`, the concentration giving a half-maximal response (EC50) was 8.5 nM.

As for `CC(C)(N)C(=O)N[C@H](CCCc1ccccc1)C(=O)N1CCC2(CCc3ccccc32)CC1`, the EC50 amounted to 10 nM.

Consider `CC(C)(N)C(=O)N[C@H](CCCc1ccccc1)C(=O)N1CCC2(CC1)COc1ccccc12`, for which the 50% effective concentration (EC50) was 2.7 nM.

For `CNC(=O)[C@@H](Cc1ccccc1)N(C)C(=O)[C@@H](Cc1ccc2ccccc2c1)N(C)C(=O)/C=C/CC(C)(C)N` [TABIMORELIN], the EC50 worked out at 3 nM.

`CC(C)(N)C(=O)N[C@H](Cc1c[nH]c2ccccc12)C(=O)N1CCC2(CC1)CS(=O)(=O)c1ccccc12`: the half-maximal effective concentration (EC50) came to 2.1 nM.

Regarding `CC(C)(N)C(=O)N[C@H](COCc1ccccc1)C(=O)N1CCC2(CC1)C[S+]([O-])c1ccccc12` (stereo partly drawn), the EC50 was determined as 8.5 nM.

On to `CN(CCc1ccccc1NS(C)(=O)=O)C(=O)[C@@H](Cc1ccc2ccccc2c1)N(C)C(=O)/C=C/CC(C)(C)N`, for which the EC50 was 18 nM.

As to `CC(C)(N)C(=O)N[C@H](CCCc1ccccc1)C(=O)N1CCC2(CC1)CS(=O)(=O)c1ccccc12`, the EC50 came out at 1.1 nM.

Regarding `CNC(C)(C)C/C=C/C(=O)N(C)[C@H](Cc1ccc2ccccc2c1)C(=O)N(C)CCc1cccs1`, the EC50 came out at 0.8 nM.

`CN(CCc1cccs1)C(=O)[C@@H](Cc1ccc2ccccc2c1)N(C)C(=O)/C=C/CC(C)(C)N`: the concentration for a half-maximal effect (EC50) turned out to be 7.5 nM.

For the molecule `CC(C)(N)C(=O)N[C@H](COCc1ccccc1)C(=O)N1CCC2(CC1)CSc1ccccc12`, the EC50 turned out to be 10 nM.

Regarding `CC(C)(N)C(=O)N[C@H](CCc1ccccc1)C(=O)N1CCC2(CCc3ccccc32)CC1`, the 50% effective concentration (EC50) was found to be 22 nM.

`CC(C)(N)C(=O)N[C@H](Cc1c[nH]c2ccccc12)C(=O)N1CCC2(CCc3ccccc32)CC1` [L-162752]: the 50% effective concentration (EC50) was 14 nM.

With `CNC(C)(C)C/C=C/C(=O)N(C)[C@H](Cc1ccc2ccccc2c1)C(=O)N(C)Cc1ccccc1`, the concentration giving a half-maximal response (EC50) stood at 3 nM.

As to `CC(C)(N)C(=O)N[C@H](Cc1c[nH]c2ccccc12)C(=O)N1CCC2(CC1)C[C@@H](O)c1ccccc12`, the EC50 was 0.6 nM.

In the case of `CC(C)(N)C(=O)N[C@H](Cc1c[nH]c2ccccc12)C(=O)N1CCC2(CC1)CSc1ccccc12`, the EC50 was 5.6 nM.

As for `CC(C)(N)C(=O)N[C@H](CCc1ccccc1)C(=O)N1CCC2(CC1)CS(=O)(=O)c1ccccc12`, the EC50 amounted to 6 nM.

Regarding `CN1N=C2CCN(C(=O)[C@@H](COCc3ccccc3)NC(=O)C(C)(C)N)C[C@]2(Cc2ccccc2)C1=O`, the 50% effective concentration (EC50) was 3 nM.

For the molecule `CN(CCc1ccccc1OCCO)C(=O)[C@@H](Cc1ccc2ccccc2c1)N(C)C(=O)/C=C/CC(C)(C)N`, the EC50 amounted to 5 nM.

On to `CC(C)(N)C(=O)N[C@H](CCCc1ccccc1)C(=O)N1CCC2(CC1)CSc1ccccc12`, for which the EC50 is 4.8 nM.

With `CCOC(=O)[C@@]1(Cc2ccccc2)CCCN(C(=O)[C@@H](Cc2c[nH]c3ccccc23)NC(=O)C(C)(C)N)C1`, the concentration giving a half-maximal response (EC50) was 1.6 nM.

As for `CCN1N=C2CCN(C(=O)[C@@H](COCc3ccccc3)NC(=O)C(C)(C)N)C[C@]2(Cc2ccccc2)C1=O`, the EC50 was found to be 4 nM.

Take `CC(C)(N)C(=O)N[C@@H]1CCc2ccccc2N(Cc2ccc(-c3ccccc3CNC(=O)NCCO)cc2)C1=O`: the EC50 turned out to be 2 nM.

For the molecule `CC(C)(N)C(=O)N[C@H](COCc1ccccc1)C(=O)N1CCC2(CCc3ccccc32)CC1`, the EC50 came out at 17 nM.

Regarding `CC(C)(N)C(=O)N[C@H](COCc1ccccc1)C(=O)N1CCC2=NNC(=O)[C@@]2(Cc2ccccc2)C1`, the concentration for a half-maximal effect (EC50) came to 3 nM.

Regarding `CNC(C)(C)C/C=C/C(=O)N(C)[C@H](Cc1ccc2ccccc2c1)C(=O)N(C)CCc1ccccc1OCCO`, the EC50 turned out to be 5 nM.

With `CC(C)(N)C(=O)N[C@H](CCc1ccccc1)C(=O)N1CCC2(CC1)CSc1ccccc12`, the concentration for a half-maximal effect (EC50) came to 57 nM.

As to `CC(C)(N)C(=O)N[C@H](COCc1ccccc1)C(=O)N1CCC2(CC1)CS(=O)(=O)c1ccccc12`, the EC50 is 5 nM.

In the case of `CC(C)(N)C(=O)N[C@H](CCCc1ccccc1)C(=O)N1CCC2(CC1)C[S+]([O-])c1ccccc12` (stereo partly drawn), the EC50 was 2.5 nM.
